# Results taken from US11352394B2, “Cyclic cell penetrating peptides comprising beta-hairpin motifs and methods of making and using thereof” (Ohio State Innovation Foundation, priority 2016, dated 2022).
# Where “and” joins values, the source holds several entries; their conditions need not be identical. Equal entries are not always repeated. Bridge positions count the residues as written; N and C are the ends. Square brackets hold non-standard residues; d marks the D form. Ends that are not written are not given here. Phe(4-F) = N[C@@H](Cc1ccc(F)cc1)C(=O)O; 2Nal = N[C@@H](Cc1ccc2ccccc2c1)C(=O)O; d2Nal = N[C@H](Cc1ccc2ccccc2c1)C(=O)O; Dap = NC[C@H](N)C(=O)O
# System: HeLa cells
# Assay: Cellular (cytosolic) uptake of NF-labeled peptides by flow cytometry (MFI)
# Assay type: cell-based
# Details: for Cellular Uptake (MFI^NF, %), cytosolic delivery efficiency of CPPs without beta-hairpin moiety: relative to CPP 1 (100%), mean ± S.D. of three independent experiments; for Cellular Uptake (MFINF, %): 5 μM NF-labeled peptide, relative to CPP1 (100%); for Improvement of cytosolic entry efficiency relative to BH4: D-amino acid diastereomers of BH4
# Method: HeLa cells were treated with 5 μM peptide for 2 h, and their cell uptake efficiencies were determined by flow cytometry analysis. The mean fluorescence intensity (MFI) values derived from cytometry analyses reflect the amounts of peptides inside the cytosol and nucleus, whereas any NF-labeled peptide entrapped inside the acidic endosomes are invisible under the experimental conditions (Id.; Qian, Z et al. Chem. Commun. 2015, 51, 2162-2165).
# The binding affinity of BH23 (unlabeled) for the Grb2 SH2 domain was then determined by examining its ability to compete with the FAM-labeled ligand for binding to the Grb2 SH2 domain by fluorescence polarization (FP). […] Next, BH23 was labeled with NF at the Asn side chain through a miniPEG-Lys linker and its cytosolic entry efficiency was quantitated by treating HeLa cells with 5 μM of the labeled peptide for 2 h before flow cytometry analysis. […] BH23 was also similarly labeled at the Asn side chain with FAM and its entry into HeLa cells was examined by live-cell confocal microscopy. […] Two control peptides (BH24 and BH25) were also prepared for cellular assays. BH24 and BH25 are structurally similar to BH23, except that BH24 contained a Tyr instead of the pY residue (FIG. 11), whereas in BH25 the two hydrophobic residues critical for cellular uptake (Nal-arg) were replaced with Ala-ala (FIG. 12).
# BHT1 and BHT2 were labeled with naphthofluorescein (NF) and their cytosolic uptake into HeLa cells was determined by flow cytometry (Table 10).
# Additional cell penetrating compounds were prepared and tested for cytosolic delivery. In these compounds there was no beta-hairpin turn creating moiety.
# [1] = HeLa cells, 2 h, flow cytometry
Substance,"Cellular Uptake (MFI^NF, %), cytosolic delivery efficiency of CPPs without beta-hairpin moiety [%]",also measured
259 (cyclo(G[2Nal]RRRRQ); SMILES N=C(N)NCCC[C@@H]1NC(=O)[C@H](Cc2ccc3ccccc3c2)NC(=O)CNC(=O)[C@H](CCC(N)=O)NC(=O)[C@H](CCCNC(=N)N)NC(=O)[C@H](CCCNC(=N)N)NC(=O)[C@H](CCCNC(=N)N)NC1=O) [Peptide 259],55 ± 5,
260 (FFFRRRRQ; cyclic) [Peptide 260],122 ± 20,
261 (RFFRRRRQ; cyclic) [Peptide 261],104 ± 5,
262 (RRFFRRRQ; cyclic) [Peptide 262],115 ± 20,
263 (RFFFRRRQ; cyclic) [Peptide 263],167 ± 10,
264 (RRFFFRRQ; cyclic) [Peptide 264],112 ± 20,
265 (FFRRFRRQ; cyclic) [Peptide 265],46 ± 2,
266 (FFRRRRFQ; cyclic) [Peptide 266],162 ± 16,
267 (FRRFFRRQ; cyclic) [Peptide 267],127 ± 22,
268 (FFFRRRRRQ; cyclic) [Peptide 268],145 ± 27,
269 (FFFRRRRRRQ; cyclic) [Peptide 269],141 ± 10,
270 (cyclo(F[2Nal]R[dR]R[dR]Q)) [Peptide 270],212 ± 42,
271 (cyclo([Phe(4-F)][Phe(4-F)]RRRRQ); SMILES N=C(N)NCCC[C@@H]1NC(=O)[C@H](CCCNC(=N)N)NC(=O)[C@H](CCCNC(=N)N)NC(=O)[C@H](Cc2ccc(F)cc2)NC(=O)[C@H](Cc2ccc(F)cc2)NC(=O)[C@H](CCC(N)=O)NC(=O)[C@H](CCCNC(=N)N)NC1=O) [Peptide 271],165 ± 22,
272 (cyclo(F[dF]FR[dR]RQ); SMILES N=C(N)NCCC[C@@H]1NC(=O)[C@H](Cc2ccccc2)NC(=O)[C@@H](Cc2ccccc2)NC(=O)[C@H](Cc2ccccc2)NC(=O)[C@H](CCC(N)=O)NC(=O)[C@H](CCCNC(=N)N)NC(=O)[C@@H](CCCNC(=N)N)NC1=O) [Peptide 272],230 ± 18,
273 (cyclo([dF]F[dF][dR]R[dR]Q); SMILES N=C(N)NCCC[C@@H]1NC(=O)[C@@H](CCCNC(=N)N)NC(=O)[C@@H](Cc2ccccc2)NC(=O)[C@H](Cc2ccccc2)NC(=O)[C@@H](Cc2ccccc2)NC(=O)[C@H](CCC(N)=O)NC(=O)[C@@H](CCCNC(=N)N)NC1=O) [Peptide 273],463 ± 94,
274 (cyclo([dF]F[dF]R[dR]RQ); SMILES N=C(N)NCCC[C@@H]1NC(=O)[C@@H](CCCNC(=N)N)NC(=O)[C@H](CCCNC(=N)N)NC(=O)[C@@H](Cc2ccccc2)NC(=O)[C@H](Cc2ccccc2)NC(=O)[C@@H](Cc2ccccc2)NC(=O)[C@H](CCC(N)=O)NC1=O) [Peptide 274],359 ± 66,
275 (cyclo(F[dF]F[dR]R[dR]Q); SMILES N=C(N)NCCC[C@@H]1NC(=O)[C@@H](CCCNC(=N)N)NC(=O)[C@H](Cc2ccccc2)NC(=O)[C@@H](Cc2ccccc2)NC(=O)[C@H](Cc2ccccc2)NC(=O)[C@H](CCC(N)=O)NC(=O)[C@@H](CCCNC(=N)N)NC1=O) [Peptide 275],236 ± 26,
"276 (cyclo([dF]F[d2Nal][dR]R[dR]Q); also: further D-residues, places not given here) [Peptide 276]",250 ± 37,
277 (cyclo([dF][2Nal][dF][dR]R[dR]Q)) [Peptide 277],267 ± 62,

Substance,"Cellular Uptake (MFI^NF, %), cytosolic delivery efficiency of CPPs without beta-hairpin moiety [%]",also measured
"278 (cyclo([d2Nal]F[dF][dR]R[dR]Q); also: further D-residues, places not given here) [Peptide 278]",50 ± 9,
279 (cyclo(F[2Nal][dR]R[dR]Q)) [Peptide 279],76,
280 (cyclo([dF][2Nal][dR]R[dR]Q)) [Peptide 280],214,
281 (Ac-K[dF]FR[dR]R[dR]D; lactam 1-8 (inferred); not fully specified; printed as Ac-(Lys-fFRrRrD)) [Peptide 281],129 ± 9,
282 (Ac-[Dap][dF]FR[dR]R[dR]D; lactam 1-8 (inferred); not fully specified; printed as Ac-(Dap-fFRrRrD)) [Peptide 282],126 ± 33,
283 (CWWRRRRC; disulfide 1-8) [Peptide 283],51,
284 (CWWWRRRRC; disulfide 1-9) [Peptide 284],67,
285 (CFWRRRRC; disulfide 1-8) [Peptide 285],49,
286 (CWWWRRRC; disulfide 1-8) [Peptide 286],135,
cyclo(A-A-F-R-R-p-P-R-R-Φ-A-A-A-Q)-miniPEG-K(NF) (cyclo(AAFRR[dP]PRR[2Nal]AAAQ); not fully specified (residue 14); printed as cyclo(A-A-F-R-R-p-P-R-R-Φ-A-A-A-Q)-miniPEG-K(NF)) [BH2],,"Cellular Uptake (MFINF, %) [1]: 24 ± 1%"
cyclo(A-A-F-Φ-F-p-P-R-R-R-A-A-A-Q)-miniPEG-K(NF) (cyclo(AAF[2Nal]F[dP]PRRRAAAQ); not fully specified (residue 14); printed as cyclo(A-A-F-Φ-F-p-P-R-R-R-A-A-A-Q)-miniPEG-K(NF)) [BH3],,"Cellular Uptake (MFINF, %) [1]: 30 ± 6%"
cyclo(A-A-F-Φ-R-p-P-R-R-F-A-A-A-Q)-miniPEG-K(NF) (cyclo(AAF[2Nal]R[dP]PRRFAAAQ); not fully specified (residue 14); printed as cyclo(A-A-F-Φ-R-p-P-R-R-F-A-A-A-Q)-miniPEG-K(NF)) [BH4],,"Cellular Uptake (MFINF, %) [1]: 73 ± 6%; Cellular entry / delivery efficiency (in words) (HeLa cells, flow cytometry): taken up most efficiently"
cyclo(A-A-F-Φ-R-p-P-R-R-R-A-A-A-Q)-miniPEG-K(NF) (cyclo(AAF[2Nal]R[dP]PRRRAAAQ); not fully specified (residue 14); printed as cyclo(A-A-F-Φ-R-p-P-R-R-R-A-A-A-Q)-miniPEG-K(NF)) [BH1],,"Cellular Uptake (MFINF, %) [1]: 66 ± 12%"
cyclo(A-A-F-Φ-R-p-P-R-r-F-A-A-A-Q)-miniPEG-K(NF) (cyclo(AAF[2Nal]R[dP]PR[dR]FAAAQ); not fully specified (residue 14); printed as cyclo(A-A-F-Φ-R-p-P-R-r-F-A-A-A-Q)-miniPEG-K(NF)) [BH7],,"Cellular Uptake (MFINF, %) [1]: 363 ± 213%; Improvement of cytosolic entry efficiency relative to BH4 (HeLa cells): 5 fold"
cyclo(A-A-F-Φ-R-p-P-r-R-F-A-A-A-Q)-miniPEG-K(NF) (cyclo(AAF[2Nal]R[dP]P[dR]RFAAAQ); not fully specified (residue 14); printed as cyclo(A-A-F-Φ-R-p-P-r-R-F-A-A-A-Q)-miniPEG-K(NF)) [BH5],,"Cellular Uptake (MFINF, %) [1]: 102 ± 45%; Improvement of cytosolic entry efficiency relative to BH4 (HeLa cells): only minor effect"
cyclo(A-A-F-Φ-r-p-P-R-R-F-A-A-A-Q)-miniPEG-K(NF) (cyclo(AAF[2Nal][dR][dP]PRRFAAAQ); not fully specified (residue 14); printed as cyclo(A-A-F-Φ-r-p-P-R-R-F-A-A-A-Q)-miniPEG-K(NF)) [BH6],,"Cellular Uptake (MFINF, %) [1]: 431 ± 169%; Improvement of cytosolic entry efficiency relative to BH4 (HeLa cells): 6 fold"
cyclo(A-A-F-φ-R-p-P-R-R-F-A-A-A-Q)-miniPEG-K(NF) (cyclo(AAF[d2Nal]R[dP]PRRFAAAQ); not fully specified (residue 14); printed as cyclo(A-A-F-φ-R-p-P-R-R-F-A-A-A-Q)-miniPEG-K(NF)) [BH8],,"Cellular Uptake (MFINF, %) [1]: 235%; Improvement of cytosolic entry efficiency relative to BH4 (HeLa cells): 3 fold"
cyclo(A-E-T-G-E-F-L-F-Φ-r-p-P-R-R-F-L-Q)-miniPEG-K(NF) (cyclo(AETGEFLF[2Nal][dR][dP]PRRFLQ); not fully specified (residue 17); printed as cyclo(A-E-T-G-E-F-L-F-Φ-r-p-P-R-R-F-L-Q)-miniPEG-K(NF)) [BH12],,"Cytosolic entry efficiency, fold higher than CPP1 (HeLa cells): 5.8 fold; Cellular Uptake (MFINF, %) [1]: 575 ± 239%"
cyclo(AFΦPRRFQ)-miniPEG-K(NF) [BHT1],,"Cellular Uptake (MFI^NF, %) of β-hairpin transporters (HeLa cells, 5 μM peptide, 2 h, DMEM with 10% FBS and 1% ABS, relative to CPP9 (100%)): 88% and 88 ± 11%"
